Here are results for 26 compounds from patent publication US20260028337A1, “COMPOUND FOR INHIBITING IRAK4 ACTIVITY AND USE THEREOF” (SHENZHEN ZHONGGE BIOLOGICAL TECHNOLOGY CO., LTD., priority 2022, published 2026).

What is called IC50 is the midpoint of a concentration-inhibition curve.

Where a name gives a salt, the structure may show the parent alone.

Sequence of IRAK4 kinase (Q9NWZ3 whole entry): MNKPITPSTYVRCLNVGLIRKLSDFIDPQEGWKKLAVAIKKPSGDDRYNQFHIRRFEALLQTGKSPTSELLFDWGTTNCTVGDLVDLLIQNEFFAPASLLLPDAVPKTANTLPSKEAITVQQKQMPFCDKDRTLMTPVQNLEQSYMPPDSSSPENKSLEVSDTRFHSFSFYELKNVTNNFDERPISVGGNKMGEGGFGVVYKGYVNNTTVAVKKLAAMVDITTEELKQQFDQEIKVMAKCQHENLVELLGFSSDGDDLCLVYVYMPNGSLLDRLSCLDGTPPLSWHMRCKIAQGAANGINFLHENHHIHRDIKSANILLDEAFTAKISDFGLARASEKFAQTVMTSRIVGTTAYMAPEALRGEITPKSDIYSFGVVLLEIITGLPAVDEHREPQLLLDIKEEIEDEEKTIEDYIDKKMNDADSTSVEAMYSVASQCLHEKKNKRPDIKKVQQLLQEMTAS

This experiment deals with IRAK4 kinase (Homo sapiens (Human), UniProt Q9NWZ3). Description: IRAK4 Kinase Inhibition Assay (Cisbio HTRF KinEASE-STK S1 kit). In kind it is biochemical. Conditions: IRAK4 kinase protein 10 nM, ATP 200 μM, STK Substrate 1-biotin 1 μM, 37° C. 2 h, read-out: IC50 (nM), IRAK4 kinase inhibitory activity. As for the experimental part:
Test Example 1. IRAK4 Kinase Inhibition Assay
In this assay, Cisbio HTRF KinEASE-STK SI kit (62S 1 PEB) was used, in which assay/detection buffer, STK Substrate 1-biotin, Streptavidin-XL665, STK Antibody-Cryptate were contained.
After adding compound/DMSO to a 384-well plate (PerkinElmer 6008280) using Echo 665, 5 μL of 2-fold reaction concentration of IRAK4 kinase protein (final concentration: 10 nM) dissolved with assay buffer [1 volume of 5× kinase buffer+20 mM magnesium chloride (Sigma) solution+1 mM DTT (Alfa Aesar) solution+4 volumes deionized water] was added, followed by sealing the shallow well plate, shaking and then centrifuging at 1000 rpm for 1 min, and incubating at room temperature for 5 min; then 5 μL of 2-fold reaction concentration of a 1:1 mixture of STK Substrate 1-biotin (final concentration: 1 μM) and ATP (Sigma A1852) (final concentration: 200 μM) formulated with assay buffer was added, followed by sealing the shallow well plate, shaking and then centrifuging at 1000 rpm for 1 min, and incubating at 37° C. for 2 h, and then 10 μL of a 1:1 mixture of Streptavidin-XL665 (final concentration: 62.5 nM) and STK-antibody-cryptate dissolved with detection buffer was added, followed by sealing the shallow well plate, shaking and then centrifuging at 1000 rpm for 1 min, and incubating at room temperature for 1 h, and thereafter reading the value at the wavelength of 620 nm/665 nm using a microplate reader. The data were analyzed using Prism 9.3 software, and the IC50 value of IRAK4 kinase inhibition was fitted using a four parameter Logistic equation.
In general terms: Time-resolved FRET reads energy transfer from a long-lived donor to a nearby acceptor.
`CC1(C)C[C@H](n2cc(-n3cc(-c4cnn5ccc(N6CCOCC6)nc45)nn3)c(C(F)F)n2)CCN1` [Compound 86A, (R)-4-(3-(1-(3-(difluoromethyl)-1-(2,2-dimethylpiperidin-4-yl)-1H-pyrazol-4-yl)-1,2,3-triazol-4-yl]pyrazolo[1,5-a]pyrimidin-5-yl) morpholine]: the IC50 was 100 to 1000 nM. Take `CC1(C)C[C@@H](n2cc(-n3cc(-c4cnn5ccc(N6CCOCC6)nc45)nn3)c(C(F)F)n2)CCN1` [Compound 87A, (S)-4-(3-(1-(3-(difluoromethyl)-1-(2,2-dimethylpiperidin-4-yl)-1H-pyrazol-4-yl)-1,2,3-triazol-4-yl]pyrazolo[1,5-a]pyrimidin-5-yl) morpholine]: the IC50 is 100 to 1000 nM.

Turning to `CC1(C)COCCN1c1ccn2ncc(-c3cn(-c4cn([C@H]5CC[C@H](CO)CC5)nc4C(F)F)nn3)c2n1` [Compound 88A, ((1r,4r)-4-(3-(difluoromethyl)-4-(4-(5-(3,3-dimethylmorpholinyl)pyrazolo[1,5-a]pyrimidin-3-yl)-1H-1,2,3-triazol-1-yl)-1H-pyrazol-1-yl)cyclohexyl)methanol], the IC50 lay in the range of 100 to 1000 nM. For `CC1(C)CN(c2ccn3ncc(-c4cn(-c5cn(C6CCC(CO)CC6)nc5C(F)F)nn4)c3n2)CCO1` (centres unmarked) [Compound 89A, ((1r,4r)-4-(3-(difluoromethyl)-4-(4-(5-(2,2-dimethylmorpholinyl)pyrazolo[1,5-a]pyrimidin-3-yl)-1H-1,2,3-triazol-1-yl)-1H-pyrazol-1-ylcyclohexyl)methanol], the IC50 lay within 100 to 1000 nM. Consider `OC[C@H]1CC[C@H](n2cc(-n3cc(-c4cnn5ccc(N6CC7(COC7)C6)nc45)nn3)c(C(F)F)n2)CC1` [Compound 90A, ((1r, 4r)-4-(4-(4-(5-(2-oxa-6-azaspiro[3.3]heptan-6-yl)pyrazolo[1,5-a]pyrimidin-3-yl)-1H-1,2,3-triazol-1-yl)-3-(difluoromethyl)-1H-pyrazol-1-yl]cyclohexyl)methanol], for which the IC50 lay within 100 to 1000 nM. As for `O=S1(=O)CCN(c2ccn3ncc(-c4cn(-c5cn([C@H]6CC[C@H](CO)CC6)nc5C(F)F)nn4)c3n2)CC1` [Compound 91A, 4-(3-(1-(3-(difluoromethyl)-1-((1r,4r)-4-(methylol)cyclohexyl)-1H-pyrazol-4-yl)-1H-1,2,3-triazol-4-yl)pyrazolo[1,5-a]pyrimidin-5-yl)thiomorpholine 1,1-dioxide], the IC50 lay in the range of 100 to 1000 nM. As for `CC(C)(O)CCNc1ccn2ncc(-c3cn(-c4cn([C@H]5CC[C@H](CO)CC5)nc4C(F)F)nn3)c2n1` [Compound 92A, 4-((3-(1-(3-(difluoromethyl)-1-((1r,4r)-4-(methylol)cyclohexyl)-1H-pyrazol-4-yl)-1H-1,2,3-triazol-4-yl]pyrazolo[1,5-a]pyrimidin-5-yl)amino)-2-methylbutan-2-ol], the IC50 was less than 100 nM. `CC1(O)CCN(c2ccn3ncc(-c4cn(-c5cn([C@H]6CC[C@H](CO)CC6)nc5C(F)F)nn4)c3n2)CC1` [Compound 93A, 1-(3-(1-(3-difluoromethyl)-1-((1r,4r)-4-(methylol)cyclohexyl)-1H-pyrazol-4-yl)-1H-1,2,3-triazol-4-ylpyrazolo[1,5-a]pyrimidin-5-yl)-4-methylpiperidin-4-ol]: the IC50 is less than 100 nM.

On to `OC[C@H]1CC[C@H](n2cc(-n3cc(-c4cnn5ccc(NCC6CC6)nc45)nn3)c(C(F)F)n2)CC1` [Compound 94A, ((1r,4r)-4-(4-(4-(5-((cyclopropylmethyl)amino)pyrazolo[1,5-a]pyrimidin-3-yl)-1H-1,2,3-triazol-1-yl)-3-(difluoromethyl)-1H-pyrazol-1-yl)cyclohexyl)methanol], for which the IC50 is less than 100 nM.

Take `CN1CCN(c2ccn3ncc(-c4cn(-c5cn([C@H]6CC[C@H](CO)CC6)nc5C(F)F)nn4)c3n2)CC1` [Compound 95A, (1R,4R)-4-(3-difluoromethyl)-4-(4-(5-(4-methylpiperazin-1-yl)pyrazolo[1,5-a]pyrimidin-3-yl)-1H-1,2,3-triazol-1-yl)-1H-pyrazol-1-yl)cyclohexylmethanol formate]: the IC50 lay in the range of 100 to 1000 nM.

Consider `OC[C@H]1CC[C@H](n2cc(-n3cc(-c4cnn5ccc(N6CC(O)C6)nc45)nn3)c(C(F)F)n2)CC1` [Compound 96A, 1-(3-(1-(3-difluoromethyl)-1-((1r,4r)-4-(methylol)cyclohexyl)-1H-pyrazol-4-yl)-1H-1,2,3-triazol-4-ylpyrazolo[1,5-a]pyrimidin-5-yl)azetidin-3-ol], for which the IC50 is 100 to 1000 nM. For `OC[C@H]1CC[C@H](n2cc(-n3cc(-c4cnn5ccc(N6CCC(O)CC6)nc45)nn3)c(C(F)F)n2)CC1` [Compound 97A], the IC50 is less than 100 nM. `OC[C@H]1CC[C@H](n2cc(-n3cc(-c4cnn5ccc(N6CCCOCC6)nc45)nn3)c(C(F)F)n2)CC1` [Compound 98A]: the IC50 was less than 100 nM.

For `OCC1CCC(n2cc(-n3cc(-c4cnn5ccc(N6CC7CC[C@H](C6)O7)nc45)nn3)c(C(F)F)n2)CC1` (some centres unmarked) [Compound 99A, ((1r,4r)-4-(4-(4-(5-(8-oxa-3-azabicyclo[3.2.1]oct-3-yl)pyrazolo[1,5-a]pyrimidin-3-yl)-1H-1,2,3-triazol-1-yl)-3-(difluoromethyl)-1H-pyrazol 1-yl)cyclohexyl)methanol], the IC50 lay within 100 to 1000 nM.

On to `OC[C@H]1CC[C@H](n2cc(-n3cc(-c4cnn5ccc(N6CCCC(O)C6)nc45)nn3)c(C(F)F)n2)CC1` (some centres unmarked) [Compound 100A], for which the IC50 is less than 100 nM. As to `OC[C@H]1CC[C@H](n2cc(-n3cc(-c4cnn5ccc(N6CCC(O)C6)nc45)nn3)c(C(F)F)n2)CC1` (some centres unmarked) [Compound 101A], the IC50 is 100 to 1000 nM. As to `CN(C)C1CCN(c2ccn3ncc(-c4cn(-c5cn(C6CCC(CO)CC6)nc5C(F)F)nn4)c3n2)CC1` (centres unmarked) [Compound 102A, ((1r, 4r)-4-(3-(difluoromethyl)-4-(4-(5-(4-(dimethylamino)piperidin-1-yl)pyrazolo[1,5-a]pyrimidin-3-yl)-1H-1,2,3-triazol-1-yl)-1H-pyrazol-1-ylcyclohexyl)methanol], the IC50 fell in the range of 100 to 1000 nM.

Turning to `N[C@H]1CCCN(c2ccn3ncc(-c4cn(-c5cn(C6CCC(CO)CC6)nc5C(F)F)nn4)c3n2)C1` (stereo partly drawn) [Compound 103A, ((1r, 4r)-4-(4-(4-(5-((S)-3-aminopiperidin-1-yl)pyrazolo[1,5-a]pyrimidin-3-yl)-1H-1,2,3-triazol-1-yl)-3-(difluoromethyl)-1H-pyrazol-1-yl]cyclohexyl) methanol], the IC50 was less than 100 nM.

In the case of `OC[C@H]1CC[C@H](n2cc(-n3cc(-c4cnn5ccc(N6CCOCC6)nc45)nn3)c(C(F)F)n2)CC1` [Compound 104A, ((1r,4r)-4-(3-(difluoromethyl)-4-(4-(5-morpholinyl-pyrazolo[1,5-a]pyrimidin-3-yl)-1H-1,2,3-triazol-1-yl)-1H-pyrazol-1-yl]cyclohexyl)methanol], the IC50 was less than 100 nM. Take `OCC1CCC(n2cc(-n3cc(-c4cnn5ccc(N6C[C@H]7C[C@@H]6CO7)nc45)nn3)c(C(F)F)n2)CC1` (stereo partly drawn) [Compound 105A, ((1R,4r)-4-(4-(4-(5-((1R,4r)-2-oxa-5-azabicyclo[2.2.1]heptan-5-yl)pyrazolo[1,5-a]pyrimidin-3-yl)-1H-1,2,3-triazol-1-yl)-3-(difluoromethyl)-1H-pyrazol-1-yl)cyclohexyl)methanol]: the 50% inhibitory concentration (IC50) lay in the range of 100 to 1000 nM. For `N[C@@H]1CCCN(c2ccn3ncc(-c4cn(-c5cn(C6CCC(CO)CC6)nc5C(F)F)nn4)c3n2)C1` (some centres unmarked) [Compound 106A] the value was less than 100 nM; for `OCC1CCC(n2cc(-n3cc(-c4cnn5ccc(N[C@H]6CCCC[C@H]6O)nc45)nn3)c(C(F)F)n2)CC1` (stereo partly drawn) [Compound 107A, (1R,2S)-2-((3-(1-(3-(difluoromethyl)-1-((1R,4S)-4-(methylol)cyclohexyl)-1H-pyrazol-4-yl)-1H-1,2,3-triazol-4-yl]pyrazolo[1,5-a]pyrimidin-5-yl)amino)cyclohexan-1-ol], less than 100 nM. On to `NC1CN(c2ccn3ncc(-c4cn(-c5cn([C@H]6CC[C@H](CO)CC6)nc5C(F)F)nn4)c3n2)CC(F)(F)C1` (some centres unmarked) [Compound 108A], for which the IC50 is less than 100 nM. For `C[C@H]1CN(c2ccn3ncc(-c4cn(-c5cn(C6CCC(CO)CC6)nc5C(F)F)nn4)c3n2)C[C@H](C)O1` (some centres unmarked) [Compound 109A] the value was less than 100 nM; for `OC[C@H]1CC[C@H](n2cc(-n3cc(-c4cnn5ccc(N[C@@H]6CCCC[C@@H]6O)nc45)nn3)c(C(F)F)n2)CC1` [Compound 111A, (1S,2R)-2-((3-(1-(3-(difluoromethyl)-1-((1r,4R)-4-(methylol)cyclohexyl)-1H-pyrazol-4-yl)-1H-1,2,3-triazol-4-yl]pyrazolo[1,5-a]pyrimidin-5-yl)amino)cyclohexan-1-ol], less than 100 nM; for `OCC1CCC(n2cc(-n3cc(-c4cnn5ccc(N6CCC[C@H](O)C6)nc45)nn3)c(C(F)F)n2)CC1` (stereo partly drawn) [Compound 112A, (S)-1-(3-(1-(3-(difluoromethyl)-1-((1r,4r)-4-(methylol)cyclohexyl)-1H-pyrazol-4-yl)-1H-1,2,3-triazol-4-yl]pyrazolo[1,5-a]pyrimidin-5-yl)piperidin-3-ol], less than 100 nM.
